Data as given in patent publication US9957271B2, “Substituted bicyclic aza-heterocycles and analogues as sirtuin modulators” (GlaxoSmithKline, LLC, priority 2012, dated 2018).

Experiments:
[1] = target: T1, SIRT1 (Homo sapiens, UniProt Q96EB6); assay: TAMRA based mass spectrometry assay of SIRT1 activity; type: biochemical; settings: for Emax: read-out: TAMRA % Fold Act
T1 sequence (Q96EB6 1-747): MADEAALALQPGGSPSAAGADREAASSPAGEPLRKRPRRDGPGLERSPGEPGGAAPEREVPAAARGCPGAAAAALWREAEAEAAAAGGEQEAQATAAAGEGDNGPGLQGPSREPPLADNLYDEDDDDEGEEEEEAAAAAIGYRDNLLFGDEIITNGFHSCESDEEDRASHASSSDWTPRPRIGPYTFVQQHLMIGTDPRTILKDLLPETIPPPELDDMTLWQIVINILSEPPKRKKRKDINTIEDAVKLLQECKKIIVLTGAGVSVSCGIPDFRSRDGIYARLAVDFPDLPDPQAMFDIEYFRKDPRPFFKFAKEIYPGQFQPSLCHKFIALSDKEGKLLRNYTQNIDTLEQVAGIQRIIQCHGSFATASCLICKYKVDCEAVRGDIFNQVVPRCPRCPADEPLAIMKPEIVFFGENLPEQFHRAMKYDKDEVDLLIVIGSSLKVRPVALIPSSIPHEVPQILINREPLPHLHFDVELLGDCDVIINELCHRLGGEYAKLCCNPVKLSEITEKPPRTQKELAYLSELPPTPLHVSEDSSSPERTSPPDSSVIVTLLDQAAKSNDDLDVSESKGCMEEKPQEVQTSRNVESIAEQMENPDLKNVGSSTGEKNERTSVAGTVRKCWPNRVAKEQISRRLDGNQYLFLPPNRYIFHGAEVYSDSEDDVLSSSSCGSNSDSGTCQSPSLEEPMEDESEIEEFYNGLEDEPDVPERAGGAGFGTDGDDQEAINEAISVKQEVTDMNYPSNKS
Method in brief: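 Recombinant N-terminal His-tagged human SIRT1 (10 nM, E. coli) incubated 25 min at 25 °C with 0.5 μM 5TMR-labelled p53-derived acetyl-peptide and 120 μM βNAD+ in Tris-acetate pH 8 buffer with DTT and 0.05% BSA, compound at varying concentrations. Stopped with formic acid; deacetylated peptide or OAADPR measured by mass spectrometry relative to DMSO controls.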

[2] = target: T1, SIRT1; assay: Trp mass spectrometry assay of SIRT1 activity; type: biochemical; settings: for Emax: read-out: Trp % Fold Act
Method in brief: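 His-tagged SIRT1 expressed in E. coli BL21(DE3), 10 nM, incubated 25 min at 25° C. with 0.5 μM Ac-RHKK(Ac)W-NH2 peptide and 120 μM βNAD+ in 50 mM HEPES pH 7.5, […], 1 mM DTT, 0.05% BSA; formic acid stop. OAADPR or deacetylated peptide measured by mass spectrometry; EC1.5 and percent maximum activation versus DMSO control.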

[3] = concentration of test compound giving 150% activation of SIRT1, TAMRA peptide substrate
[4] = percent maximum fold activation of SIRT1, TAMRA peptide substrate
[5] = concentration of test compound giving 150% activation of SIRT1, Trp peptide substrate
[6] = percent maximum fold activation of SIRT1, Trp peptide substrate
[7] = TAMRA assay, concentration giving 150% activation of SIRT1
[8] = TAMRA assay, percent maximum fold activation
[9] = Trp assay, concentration giving 150% activation of SIRT1
[10] = Trp assay, percent maximum fold activation

SMILES	TAMRA EC1.5 (μM) [1, 3]	Emax [1, 4]	Trp EC1.5 (μM) [2, 5]	Emax [2, 6]	TAMRA EC1.5 (μM) [1, 7]	Emax [1, 8]	Trp EC1.5 (μM) [2, 9]	Emax [2, 10]
CS(=O)(=O)c1ccccc1-c1ccc2ncc(C(=O)Nc3ccnc(N4CCC4)c3)n2n1 [Compound 186]	B (EC1.5 1-25 μM)	< 350%	C (EC1.5>25 μM)	< 350%				
CS(=O)(=O)c1ccccc1-c1ccc2ncc(C(=O)Nc3cccnc3)n2n1 [Compound 189]	C (EC1.5>25 μM)	< 350%	C (EC1.5>25 μM)	< 350%				
Cc1cc(-c2ccccc2C(F)(F)F)nn2c(C(=O)Nc3cccc(N4CCOCC4)n3)cnc12 [Compound 192]	A (EC1.5<1 μM)	≥ 350%	A (EC1.5<1 μM)	≥ 350%				
COc1cc(NC(=O)c2cnc3ccc(-c4ccccc4C(F)(F)F)nn23)ncn1 [Compound 197]					A (EC1.5<1 μM)	≥ 350%	B (EC1.5 1-25 μM)	< 350%
COc1cc(OC)nc(NC(=O)c2cnc3ccc(-c4ccccc4C(F)(F)F)nn23)n1 [Compound 198]					A (EC1.5<1 μM)	≥ 350%	B (EC1.5 1-25 μM)	< 350%
Cc1cc(-c2ccccc2C(F)(F)F)nn2c(C(=O)Nc3cccnc3)cnc12 [Compound 206]					B (EC1.5 1-25 μM)	≥ 350%	B (EC1.5 1-25 μM)	≥ 350%
Cc1cc(-c2ccccc2C(F)(F)F)nn2c(C(=O)Nc3ccnc(N4CCC4)c3)cnc12 [Compound 207]					A (EC1.5<1 μM)	≥ 350%	A (EC1.5<1 μM)	≥ 350%
Cc1cc2ncc(C(=O)Nc3cccnc3)n2nc1-c1ccccc1C(F)(F)F [Compound 210]					B (EC1.5 1-25 μM)	≥ 350%	B (EC1.5 1-25 μM)	≥ 350%
O=C(Nc1cncc(OCC(O)CO)n1)c1cnc2ccc(-c3ccccc3C(F)(F)F)nn12 (stereo not shown) [Compound 213]					A (EC1.5<1 μM)	≥ 350%	A (EC1.5<1 μM)	≥ 350%
O=C(Nc1cnc2ccc(-c3ccccc3C(F)(F)F)nn12)c1ccnc(CN2CCCC2)c1 [Compound 214]					C (EC1.5>25 μM)	< 350%	C (EC1.5>25 μM)	< 350%
O=C(Nc1cccnc1N1CCOCC1)c1cnc2ccc(-c3ccccc3C(F)(F)F)nn12 [Compound 215]					C (EC1.5>25 μM)	< 350%	C (EC1.5>25 μM)	< 350%
O=C(Nc1cnc2ccc(-c3ccccc3C(F)(F)F)nn12)c1cscn1 [Compound 218]					A (EC1.5<1 μM)	≥ 350%	B (EC1.5 1-25 μM)	< 350%
Cc1cc(C)nc(C(=O)Nc2cnc3ccc(-c4ccccc4C(F)(F)F)nn23)n1 [Compound 221]					A (EC1.5<1 μM)	≥ 350%	B (EC1.5 1-25 μM)	< 350%
Cc1cc2ncc(C(=O)Nc3ccncc3)n2nc1-c1ccccc1C(F)(F)F [Compound 223, 7-methyl-N-(pyridin-4-yl)-6-(2-(trifluoromethyl)phenyl)imidazo[1,2-b]pyridazine-3-carboxamide]					B (EC1.5 1-25 μM)	≥ 350%	B (EC1.5 1-25 μM)	≥ 350%
Cc1cc2ncc(C(=O)Nc3ccccn3)n2nc1-c1ccccc1C(F)(F)F [Compound 224]					B (EC1.5 1-25 μM)	≥ 350%	B (EC1.5 1-25 μM)	≥ 350%
Cc1c(-c2ccccc2C(F)(F)F)nn2c(C(=O)Nc3cccc(N4CCOCC4)n3)cnc2c1C [Compound 227]					A (EC1.5<1 μM)	≥ 350%	B (EC1.5 1-25 μM)	≥ 350%
Cc1cc(C)nc(NC(=O)c2cnc3c(C)c(C)c(-c4ccccc4Cl)nn23)c1 [Compound 230]					A (EC1.5<1 μM)	≥ 350%	C (EC1.5>25 μM)	< 350%
Cc1cncc(C(=O)Nc2cnc3ccc(-c4ccccc4C(F)(F)F)nn23)c1 [Compound 231]					B (EC1.5 1-25 μM)	≥ 350%	B (EC1.5 1-25 μM)	< 350%
Cc1ccnc(C(=O)Nc2cnc3ccc(-c4ccccc4C(F)(F)F)nn23)c1 [Compound 233]					A (EC1.5<1 μM)	≥ 350%	C (EC1.5>25 μM)	< 350%
O=C(Nc1cnc2ccc(-c3ccccc3C(F)(F)F)nn12)c1cccc(OC[C@H](O)CO)n1 [Compound 236]					A (EC1.5<1 μM)	≥ 350%	A (EC1.5<1 μM)	≥ 350%
Cc1cc(NC(=O)c2cnc3ccc(-c4ccccc4C(F)(F)F)nn23)nc(C)n1 [Compound 238]					A (EC1.5<1 μM)	≥ 350%	C (EC1.5>25 μM)	< 350%
O=C(Nc1cccnc1)c1cnn2ccc(-c3ccccc3C(F)(F)F)nc12 [Compound 239]					B (EC1.5 1-25 μM)	≥ 350%	B (EC1.5 1-25 μM)	≥ 350%
Cc1cc(NC(=O)c2cnc3ccc(-c4ccccc4F)nn23)ccn1 [Compound 242]					B (EC1.5 1-25 μM)	< 350%	B (EC1.5 1-25 μM)	< 350%
COc1cccc(NC(=O)c2cnc3ccc(-c4ccccc4F)nn23)n1 [Compound 244]					B (EC1.5 1-25 μM)	< 350%	A (EC1.5<1 μM)	< 350%
O=C(Nc1ccc(CN2CCCC2)cn1)c1cnc2ccc(-c3ccccc3C(F)(F)F)nn12 [Compound 248]					B (EC1.5 1-25 μM)	≥ 350%	B (EC1.5 1-25 μM)	< 350%
